Experimental data reported in US6677350B1, “Beta-fluoroethyl thiourea compounds and use” (priority 1999, dated 2004).
Several values for one entry are separate records, joined by “and”; a condition that tells them apart may be missing. Identical values can stand only once. Like-named read-outs stand apart in the source and are kept apart here.

Test system: M. tuberculosis H37Rv (ATCC 27294)
Experiment: In vitro anti-tuberculosis screening, BACTEC 460 radiometric system, percent inhibition of growth
Assay type: cell-based, Mycobacterium tuberculosis
Details: for inhibition at 12.5 µg/mL: Mycobacterium tuberculosis
[1] = Mtb H37Rv, 12.5 μg/mL, BACTEC 12B medium
[2] = Mtb H37Rv, drug concentration 12.5 μg/mL
[3] = Mtb H37Rv, 12.5 μg/mL, BACTEC 12B medium, read-out: Activity % Inhibition at 12.5 μg/mL (biflavonoids)

## COc1ccc(/C=C/C(=O)c2ccc([N+](=O)[O-])cc2)cc1 [Compound 4]
[1]
  Activity % inhibition at 12.5 μg/mL (chalcones): 62%

## CC(=O)Oc1ccc(C2Oc3cc(OC(C)=O)cc(OC(C)=O)c3C(=O)C2c2c(OC(C)=O)cc(OC(C)=O)c3c(=O)cc(-c4ccc(OC(C)=O)c(OC(C)=O)c4)oc23)cc1 (stereo not shown) [Compound 175, Morelloflavone heptaacetate]
[1]
  Activity % Inhibition at 12.5 μg/mL (biflavonoids): 0%

## COc1ccc(-c2cc(=O)c3c(OC)cc(OC)cc3o2)cc1 [Compound 109]
[1]
  Activity % Inhibition at 12.5 μg/mL (flavones): 12%

## COc1ccc(/C=C/C(=O)c2ccccn2)cc1 [Compound 76]
[1]
  Activity % inhibition at 12.5 μg/mL (chalcone-like compounds): 0%

## COc1ccc(-c2oc3cc(I)ccc3c(=O)c2O)cc1 [Compound 91]
[1]
  Activity % Inhibition at 12.5 μg/mL (flavones): 43%

## COc1ccc(-c2oc3cc(OC)cc(OC)c3c(=O)c2Br)cc1 [Compound 131]
[1]
  Activity % Inhibition at 12.5 μg/mL (flavones): 0%

## COc1ccc(/C=C/C(=O)c2cc(Br)ccc2O)cc1 [Compound 37]
[1]
  Activity % inhibition at 12.5 μg/mL (chalcones): 23%
[2]
  inhibition of the growth of Mtb: 23%

## COc1ccc(-c2oc3ccc(C(=O)O)cc3c(=O)c2O)cc1 [Compound 130]
[1]
  Activity % Inhibition at 12.5 μg/mL (flavones): 0%

## O=C(/C=C/c1ccccc1)c1cc(Cl)ccc1O [Compound 26]
[1]
  Activity % inhibition at 12.5 μg/mL (chalcones): 67%
[2]
  inhibition of the growth of Mtb: 67%

## COc1ccc2c(=O)cc(-c3ccccc3)oc2c1 [Compound 117]
[1]
  Activity % Inhibition at 12.5 μg/mL (flavones): 0%

## O=c1cc(-c2ccc(Br)cc2)oc2ccccc12 [Compound 97]
Mtb H37Rv, 12.5 μg/mL
  anti-TB activity in words: weakly active or inactive
[1]
  Activity % Inhibition at 12.5 μg/mL (flavones): 26%
[2]
  inhibition of the growth of Mtb: 26%

## O=C1CC(c2cccc(Br)c2)Oc2ccccc21 (stereo not shown) [Compound 134]
[1]
  Activity % Inhibition at 12.5 μg/mL (flavanones): 73%
[2]
  inhibition of the growth of Mtb: 73%

## O=C1c2c(O)cc(O)cc2O[C@H](c2ccc(O)cc2)[C@H]1c1c(O)cc(O)c2c(=O)cc(-c3ccc(O)c(O)c3)oc12 [Compound 171, Morelloflavone]
[3]
  inhibition at 12.5 µg/mL: 0%

## O=C(/C=C/c1ccc(I)cc1)c1ccccc1O [Compound 46]
[1]
  Activity % inhibition at 12.5 μg/mL (chalcones): 21%
[2]
  inhibition of the growth of Mtb: 21%

## COc1ccc(O)c(C(=O)/C=C/c2ccco2)c1 [Compound 69]
[1]
  Activity % inhibition at 12.5 μg/mL (chalcone-like compounds): 0%

## O=c1cc(-c2ccccc2)oc2c(I)cccc12 [Compound 114]
Mtb H37Rv, 12.5 μg/mL
  anti-TB activity in words: weakly active or inactive
[1]
  Activity % Inhibition at 12.5 μg/mL (flavones): 5%

## O=C(C=Cc1ccccc1)c1ccc(Cl)cc1O [Compound 25]
[1]
  Activity % inhibition at 12.5 μg/mL (chalcones): 89%
[2]
  inhibition of the growth of Mtb: 89%

## COc1cc(O)c(C(=O)/C=C/c2cc(OC)c(OC)c(OC)c2)c(O)c1 [Compound 15]
[1]
  Activity % inhibition at 12.5 μg/mL (chalcones): 0%

## O=C(/C=C/c1cccc(O)c1)c1ccccc1O [Compound 10]
[1]
  Activity % inhibition at 12.5 μg/mL (chalcones): 18%

## O=C1CC(c2ccccc2)Oc2cc(F)ccc21 (stereo not shown) [Compound 143]
[1]
  Activity % Inhibition at 12.5 μg/mL (flavanones): 7%

## Nc1cccc(C(=O)/C=C/c2ccccc2I)c1 [Compound 41]
[1]
  Activity % inhibition at 12.5 μg/mL (chalcones): 88%
[2]
  inhibition of the growth of Mtb: 88%

## O=C1CC(c2ccccc2)Oc2ccc(Br)cc21 (stereo not shown) [Compound 142]
[1]
  Activity % Inhibition at 12.5 μg/mL (flavanones): 8%

## O=c1cc(-c2ccccc2O)oc2ccccc12 [Compound 116]
[1]
  Activity % Inhibition at 12.5 μg/mL (flavones): 1%

## Suceedaneaflavanone [Compound 169]
[1]
  Activity % Inhibition at 12.5 μg/mL (biflavonoids): 0%

## O=C(/C=C/c1ccncc1)c1ccco1 [Compound 75]
[1]
  Activity % inhibition at 12.5 μg/mL (chalcone-like compounds): 0%

## O=c1cc(-c2ccc(I)cc2)oc2ccccc12 [Compound 84]
Mtb H37Rv, 12.5 μg/mL
  anti-TB activity in words: weakly active or inactive
[1]
  Activity % Inhibition at 12.5 μg/mL (flavones): 51%
[2]
  inhibition of the growth of Mtb: 51%

## COc1cc(OC)c2c(c1)OC(c1cc(OC)c(OC)c(OC)c1)C(Br)(Br)C2=O (stereo not shown) [Compound 140]
[1]
  Activity % Inhibition at 12.5 μg/mL (flavanones): 16%

## COc1cc(OC)c2c(c1)OC(c1cc(OC)c(OC)c(OC)c1)CC2=O (stereo not shown) [Compound 144]
[1]
  Activity % Inhibition at 12.5 μg/mL (flavanones): 0%

## O=C(/C=C/c1ccc(Cl)cc1)c1ccccc1O [Compound 27]
[1]
  Activity % inhibition at 12.5 μg/mL (chalcones): 67%
[2]
  inhibition of the growth of Mtb: 67%

## O=c1cc(-c2ccccc2)oc2ccc(Br)cc12 [Compound 123]
Mtb H37Rv, 12.5 μg/mL
  anti-TB activity in words: weakly active or inactive
[1]
  Activity % Inhibition at 12.5 μg/mL (flavones): 0%

## CC(=O)OC[C@H]1O[C@@H](Oc2cc(OC(C)=O)c3c(=O)cc(-c4ccc(OC(C)=O)cc4)oc3c2C2C(=O)c3c(OC(C)=O)cc(OC(C)=O)cc3OC2c2ccc(OC(C)=O)cc2)[C@H](OC(C)=O)[C@@H](OC(C)=O)[C@@H]1OC(C)=O (stereo partly shown) [Compound 177, Spicataside acetate]
[1]
  Activity % Inhibition at 12.5 μg/mL (biflavonoids): 0%

## O=c1cc(-c2ccccc2)oc2ccc(I)cc12 [Compound 124]
Mtb H37Rv, 12.5 μg/mL
  anti-TB activity in words: weakly active or inactive
[1]
  Activity % Inhibition at 12.5 μg/mL (flavones): 0%

## COc1ccc(-c2cc(=O)c3cc(C(=O)O)ccc3o2)cc1 [Compound 115]
[1]
  Activity % Inhibition at 12.5 μg/mL (flavones): 2%

## O=C(/C=C/c1ccccc1)c1ccccc1O [Compound 5, 2′-hydroxychalcone]
read-out: Activity % inhibition at 12.5 μg/mL (chalcones), Mtb H37Rv, 12.5 μg/mL, BACTEC 12B medium
  inhibition at 12.5 µg/mL: 61%
read-out: inhibition of the growth of Mtb, Mtb H37Rv, drug concentration 12.5 μg/mL
  inhibition at 12.5 µg/mL: 61%

## COc1ccc(C=CC(=O)c2ccc(Cl)cc2O)cc1 [Compound 28]
[1]
  Activity % inhibition at 12.5 μg/mL (chalcones): 57%
[2]
  inhibition of the growth of Mtb: 57%

## O=c1c(O)c(-c2ccccc2)oc2ccc(I)cc12 [Compound 79]
[1]
  Activity % Inhibition at 12.5 μg/mL (flavones): 64%

## COc1ccc(-c2oc3ccccc3c(=O)c2Br)cc1 [Compound 96]
[1]
  Activity % Inhibition at 12.5 μg/mL (flavones): 28%

## O=C(/C=C/c1ccccc1)c1cccc(Br)c1O [Compound 32]
[1]
  Activity % inhibition at 12.5 μg/mL (chalcones): 79%
[2]
  inhibition of the growth of Mtb: 79%

## O=C1C[C@@H](c2ccc(O)cc2)Oc2c1c(O)cc(O[C@@H]1O[C@H](CO)[C@@H](O)[C@H](O)[C@H]1O)c2[C@H]1C(=O)c2c(O)cc(O)cc2O[C@@H]1c1ccc(O)cc1 [Compound 178, Multifloraside]
[1]
  Activity % Inhibition at 12.5 μg/mL (biflavonoids): 0%

## Nc1ccc(C(=O)C=Cc2cccnc2N)cc1 [Compound 73]
[1]
  Activity % inhibition at 12.5 μg/mL (chalcone-like compounds): 0%

## O=C1c2ccccc2OC(c2ccccc2)C1(Br)Br (stereo not shown) [Compound 148]
[1]
  Activity % Inhibition at 12.5 μg/mL (flavanones): 0%

## O=C1CC(c2ccc(O)cc2)Oc2cc(O)c(-c3c(O)cc(O)c4c3OC(c3ccc(O)cc3)CC4=O)c(O)c21 (stereo not shown) [Compound 168, Rhusflavanone]
[1]
  Activity % Inhibition at 12.5 μg/mL (biflavonoids): 0%

## O=c1cc(-c2ccc(Oc3c(O)cc4oc(-c5ccc(O)cc5)cc(=O)c4c3O)cc2)oc2cc(O)cc(O)c12 [Compound 167, Hinokiflavone]
[3]
  inhibition at 12.5 µg/mL: 0%

## O=c1c(O)c(-c2ccccc2)oc2c(F)cccc12 [Compound 90]
[1]
  Activity % Inhibition at 12.5 μg/mL (flavones): 43%

## O=C(/C=C/c1ccccc1I)c1ccccc1O [Compound 44, 2′-hydroxy-2-iodochalcone]
Mtb H37Rv, 12.5 μg/mL, BACTEC 12B medium, read-out: Activity % inhibition at 12.5 μg/mL (chalcones)
  inhibition at 12.5 µg/mL: 41%
Mtb H37Rv, drug concentration 12.5 μg/mL, read-out: inhibition of the growth of Mtb
  inhibition at 12.5 µg/mL: 41%

## O=C1c2ccccc2OC(c2cccc(Cl)c2)C1O (stereo not shown) [Compound 135]
[1]
  Activity % Inhibition at 12.5 μg/mL (flavanones): 63%

## O=C(/C=C/c1ccccc1)c1cccc2ccccc12 [Compound 61]
[1]
  Activity % inhibition at 12.5 μg/mL (chalcone-like compounds): 37%

## COc1ccc(-c2cc(=O)c3ccc(I)cc3o2)cc1 [Compound 128]
[1]
  Activity % Inhibition at 12.5 μg/mL (flavones): 0%

## COc1ccc(/C=C/C(=O)c2ccc(OC)cc2O)cc1 [Compound 9]
[1]
  Activity % inhibition at 12.5 μg/mL (chalcones): 32%

## COc1ccc(/C=C/C(=O)c2cc(Cl)ccc2O)cc1 [Compound 29]
[1]
  Activity % inhibition at 12.5 μg/mL (chalcones): 20%
[2]
  inhibition of the growth of Mtb: 20%

## O=C(/C=C/c1ccccc1)c1cc(I)ccc1O [Compound 42]
[1]
  Activity % inhibition at 12.5 μg/mL (chalcones): 51%
[2]
  inhibition of the growth of Mtb: 51% and 52%

## O=c1cc(-c2ccc(O)c(-c3c(O)cc4oc(-c5ccc(O)cc5)cc(=O)c4c3O)c2)oc2cc(O)cc(O)c12 [Compound 166, Robustaflavone]
[3]
  inhibition at 12.5 µg/mL: 0%

## O=c1cc(-c2ccccc2)oc2ccc(F)cc12 [Compound 112]
Mtb H37Rv, 12.5 μg/mL
  anti-TB activity in words: weakly active or inactive
[1]
  Activity % Inhibition at 12.5 μg/mL (flavones): 7%

## O=c1cc(-c2cccc(I)c2)oc2ccccc12 [Compound 101]
Mtb H37Rv, 12.5 μg/mL
  anti-TB activity in words: weakly active or inactive
[1]
  Activity % Inhibition at 12.5 μg/mL (flavones): 22%

## CCOc1cc(O)c(C(=O)C=Cc2ccccc2)c(OCC)c1 [Compound 14]
[1]
  Activity % inhibition at 12.5 μg/mL (chalcones): 0%

## O=c1cc(-c2ccccc2I)oc2ccccc12 [Compound 100]
Mtb H37Rv, 12.5 μg/mL
  anti-TB activity in words: weakly active or inactive
[1]
  Activity % Inhibition at 12.5 μg/mL (flavones): 22%
[2]
  inhibition of the growth of Mtb: 22%

## O=C(C=Cc1ccccn1)c1ccccn1 [Compound 60]
[1]
  Activity % inhibition at 12.5 μg/mL (chalcone-like compounds): 42%

## O=c1cc(-c2ccccc2-c2cccc3c(=O)cc(-c4ccccc4)oc23)oc2ccccc12 [Compound 161, 8-2′′′-Biflavone]
[1]
  Activity % Inhibition at 12.5 μg/mL (biflavonoids): 0%

## COc1ccc(C(=O)/C=C/c2cccc(I)c2)c(O)c1 [Compound 43]
[1]
  Activity % inhibition at 12.5 μg/mL (chalcones): 47%
[2]
  inhibition of the growth of Mtb: 47%

## COc1ccc(-c2oc3cc(F)ccc3c(=O)c2OC(C)=O)cc1 [Compound 86]
[1]
  Activity % Inhibition at 12.5 μg/mL (flavones): 50%

## CN(C)c1ccc(/C=C/C(=O)c2ccccn2)cc1 [Compound 62]
[1]
  Activity % inhibition at 12.5 μg/mL (chalcone-like compounds): 16%

## CC(=O)Oc1ccc([C@@H]2CC(=O)c3c(cc(OC(C)=O)c(-c4c(OC(C)=O)cc(OC(C)=O)c5c4O[C@H](c4ccc(OC(C)=O)cc4)CC5=O)c3OC(C)=O)O2)cc1 [Compound 173, Rhusflavanone hexaacetate]
[1]
  Activity % Inhibition at 12.5 μg/mL (biflavonoids): 0%

## 3′′′-Nitro-C3-O-C4′′′′--Biflavone [Compound 154]
[1]
  Activity % Inhibition at 12.5 μg/mL (biflavonoids): 61%
